We go through 15 compounds from US20110046368A1, “LIGANDS OF 5-HT6 RECEPTORS, A PHARMACEUTICAL COMPOSITION, METHOD FOR THE PRODUCTION AND USE THEREOF” (priority 2006, published 2011).

Where two headings read alike, the source gives them in different places.

This test addresses T1, serotonin 5-HT6 receptors (Homo sapiens, UniProt P50406).
T1 construct: expressed in transfected cells; host or cells: HeLa cells (membranes)
Nature of the test: [3H]LSD displacement from 5-HT6 receptors expressed in HeLa cell membranes. It counts as binding. The note with it: for Interaction efficiency of compounds of the general formula 1 with 5-HT6 receptor, %: displacement of 1.5 nM [3H]LSD, tested compounds at 10 mkM, 2 hr at 37° C. The protocol:
Investigation of ligand activity of azaheterocyclic compounds of the general formula 1 to 5-HT6 receptor. A focused library, including 3537 azaheterocyclic compounds of the general formula 1, their geometric isomers and pharmaceutically acceptable salts were tested for ligand activity to 5-HT6 receptor. Some examples of the tested azaheterocyclic compounds of the general formula 1 are represented in Tables 1-3, including: pyrrolo[4,3-b]indoles 1.2, 1.3 (Table 1), γ-carbolines 1.5, 1.6, 1.7 (Table 2) and azepino[4,3-b]indoles 1.10, 1.12, 1.13 (Tables 3). Ligand activity was determined by the ability of azaheterocyclic compounds of the general formula 1 to displace concurrently tritium-labelled diethyl […] of lysergic acid ([^3H]LSD), specifically bound to serotonin 5-HT6 receptors, which are expressed in HeLa cells membranes [Monsma F J Jr, Shen Y, Ward R P, Hamblin M W and Sibley D R (1993). Cloning and expression of a novel serotonin receptor with high affinity for tricyclic psychotropic drugs. Mol. Pharmacol. 43:320-3271. Cells membranes were incubated with 1.5 nM [^3H]LSD for 2 hr at 37° C. without and in the presence of tested compounds of 10 mkM concentration in the medium comprising: 50 mM Tris-HCl, pH 7.4, 150 mM NaCl, 2 mM ascorbic acid and 0.001% of bovine serum albumin. Nonspecific binding of [^3H]LSD was determined in the presence of 5 mkM of serotonin (5-HT). After incubation membrane suspensions were filtered through glass microfiber filters GF/A (Millipor, USA) and the residual radioactivity was measured by scintillation counter Microbeta 1840 (PerkinElmer). Investigated compounds interacted effectively with 5-HT6 receptor.
Measurements were carried out as it is described in example 1, except that the tested compounds were taken in various concentrations and % of displacement of [^3H]LSD was plotted as a function of compound's concentration (FIG. 1), on the basis of which IC50 (concentration of halfmaximum blocking of [^3H]LSD binding) values characterizing the seeming affinity of substituted azaheterocyclic compounds of the general formula 1 to 5-HT6 receptor were calculated (Table 5).

Where [1] appears, read: [3H]LSD displacement at various compound concentrations, HeLa cell membranes, read-out: IC50 (concentration of halfmaximum blocking of [3H]LSD binding), seeming affinity to 5-HT6 receptor.

T1 sequence (P50406 whole entry): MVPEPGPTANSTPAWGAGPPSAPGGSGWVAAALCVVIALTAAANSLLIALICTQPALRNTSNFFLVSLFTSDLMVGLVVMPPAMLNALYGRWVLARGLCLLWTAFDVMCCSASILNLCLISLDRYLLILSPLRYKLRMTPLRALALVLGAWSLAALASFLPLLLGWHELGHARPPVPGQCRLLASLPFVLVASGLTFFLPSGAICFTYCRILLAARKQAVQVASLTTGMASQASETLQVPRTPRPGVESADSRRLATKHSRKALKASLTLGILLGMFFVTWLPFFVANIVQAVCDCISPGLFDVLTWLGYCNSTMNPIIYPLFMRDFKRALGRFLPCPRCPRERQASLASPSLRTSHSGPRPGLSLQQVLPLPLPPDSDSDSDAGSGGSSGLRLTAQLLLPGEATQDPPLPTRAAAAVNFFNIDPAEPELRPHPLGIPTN

Regarding `Cc1ccc(S(=O)(=O)n2c3c(c4cc(C)ccc42)CN(C)C3)cc1` [1.2(39)], the “Interaction efficiency of compounds of the general formula 1 with 5-HT6 receptor, %” value (“Interaction efficiency of compounds … %” for short) (HeLa cell membranes) is on record as 77%.

On to `Cc1ccc2c(c1)[C@@H]1CN(C)C[C@@H]1N2CCc1ccc(C)nc1` [1.3(9)], for which the “Interaction efficiency of compounds … %” value (HeLa cell membranes) is listed as 27%.

Regarding `CN1CCc2c(c3ccccc3n2Cc2ccccc2)C1` [1.5(18)], the “Interaction efficiency of compounds … %” value (HeLa cell membranes) amounted to 71%.

As to `Cc1ccc2c(c1)c1c(n2CCc2ccc(C)nc2)CCN(C)C1` [1.5(20)], the IC50 under setting [1] turned out to be 0.074 µM. Further, the “Interaction efficiency of compounds … %” value (HeLa cell membranes) was determined as 100%.

Regarding `Cc1ccc2c(c1)C1CN(C)CCC1N2C(=O)c1ccccc1` (centres unmarked) [1.6(6)], the “Interaction efficiency of compounds … %” value (HeLa cell membranes) is on record as 52%.

As for `Cc1ccc2c(c1)C1CN(C)CCC1N2S(=O)(=O)c1nc2cc(C)nc(C)n2n1` (centres unmarked) [1.6(22)], under “HeLa cell membranes”, the “Interaction efficiency of compounds … %” value turned out to be 82%.

For `Cc1ccc2c(c1)[C@@H]1CN(C)CC[C@@H]1N2C(=O)Nc1cccc(C(F)(F)F)c1` [1.7(1)], the “Interaction efficiency of compounds … %” value (HeLa cell membranes) came out at 47%.

Turning to `Cc1ccc2c(c1)c1c(n2CCc2ccccn2)CCCN(C)C1` [1.10(49)], under “HeLa cell membranes”, the “Interaction efficiency of compounds … %” value is given as 88%.

On to `Cc1ccc(CCn2c3c(c4cc(C)ccc42)CN(C)CCC3)nc1` [1.10(50)], for which the IC50 under setting [1] stood at 1.25 µM. Also, the “Interaction efficiency of compounds … %” value (HeLa cell membranes) is 84%.

`Cc1ccc2c(c1)c1c(n2CCc2ccncc2)CCCN(C)C1` [1.10(51)]: the IC50 under setting [1] is 1.06 µM. For the same compound, the “Interaction efficiency of compounds … %” value (HeLa cell membranes) was 84%.

Take `Cc1ccc2c(c1)c1c(n2CCc2cccnc2)CCCN(C)C1` [1.10(53)]: under setting [1], the IC50 was determined as 0.738 µM. In addition, the “Interaction efficiency of compounds … %” value (HeLa cell membranes) is given as 79%.

Turning to `Cc1ccc2c(c1)[C@@H]1CNCCC[C@@H]1N2CCc1cccnc1` [1.12(12)], under “HeLa cell membranes”, the “Interaction efficiency of compounds … %” value turned out to be 84%.

On to `Cc1ccc2c(c1)[C@@H]1CNCCC[C@@H]1N2CCc1ccc(C)nc1` [1.12(13)], for which the “Interaction efficiency of compounds … %” value (HeLa cell membranes) was 76%.

For `Cc1ccc2c(c1)[C@@H]1CN(C)CCC[C@H]1N2CCc1ccc(C)nc1` [1.13(3)], under “HeLa cell membranes”, the “Interaction efficiency of compounds … %” value stood at 93%.

The compound `Cc1ccc2c(c1)[C@@H]1CN(C)CCC[C@H]1N2CCc1cccnc1` [1.13(13)] showed an IC50 of 0.787 µM. In addition, the “Interaction efficiency of compounds … %” value (HeLa cell membranes) is on record as 93%.
